Experiment: xn = mol fraction of the nth substance listed, in the solute-free solvent

S=c1[nH]ncs1 + CO + O
solubility (g/100 g solution)
Conditions | 278.15 K | 283.15 K | 288.15 K | 293.15 K | 298.15 K | 303.15 K | 308.15 K | 313.15 K | 318.15 K | 323.15 K
x2 = 0.1 | 0.5 | 0.691 | 0.906 | 1.21 | 1.6 | 2.03 | 2.55 | 3.35 | 4.36 | 5.36
x2 = 0.2 | 0.926 | 1.24 | 1.54 | 2.06 | 2.68 | 3.38 | 4.35 | 5.66 | 6.96 | 8.64
x2 = 0.3 | 1.39 | 1.97 | 2.65 | 3.39 | 4.42 | 5.59 | 7.12 | 9.03 | 11.2 | 13.9
x2 = 0.4 | 2.53 | 3.26 | 4.24 | 5.33 | 6.73 | 8.48 | 10.5 | 13.2 | 16.4 | 19.8
x2 = 0.5 | 3.89 | 4.96 | 6.04 | 7.5 | 9.43 | 11.5 | 13.7 | 16.8 | 20 | 23.9
x2 = 0.6 | 5.2 | 6.6 | 8.03 | 9.72 | 11.6 | 14 | 17 | 19.9 | 23.3 | 27.5
x2 = 0.7 | 6.84 | 8.43 | 10.2 | 12 | 14.1 | 16.4 | 19.3 | 22.6 | 26.2 | 29.6
x2 = 0.8 | 8.37 | 10.1 | 11.9 | 13.8 | 16 | 18.5 | 21.4 | 24.6 | 28.2 | 31.5
x2 = 0.9 | 10.1 | 11.9 | 13.7 | 15.8 | 18 | 20.5 | 23.4 | 26.6 | 30 | 33.2

COc1cc2c(cc1OC)-c1cc3ccc(OC)c(OC)c3c[n+]1CC2.[Cl-] + O + CC(C)O
solubility (g/100 g solution)
Conditions | 283.15 K | 288.15 K | 293.15 K | 298.15 K | 303.15 K | 308.15 K | 313.15 K | 318.15 K | 323.15 K | 328.15 K
x2 = 0.2703 | 0.15 | 0.185 | 0.238 | 0.315 | 0.402 | 0.504 | 0.629 | 0.775 | 0.949 | 1.16
x2 = 0.4546 | 0.201 | 0.247 | 0.317 | 0.417 | 0.531 | 0.663 | 0.824 | 1.01 | 1.24 | 1.51
x2 = 0.5883 | 0.269 | 0.33 | 0.423 | 0.553 | 0.7 | 0.872 | 1.08 | 1.32 | 1.6 | 1.95
x2 = 0.6897 | 0.356 | 0.437 | 0.559 | 0.725 | 0.933 | 1.19 | 1.46 | 1.76 | 2.11 | 2.49
x2 = 0.7693 | 0.463 | 0.593 | 0.762 | 0.958 | 1.25 | 1.49 | 1.82 | 2.18 | 2.62 | 3.11
x2 = 0.8334 | 0.587 | 0.719 | 0.914 | 1.17 | 1.46 | 1.8 | 2.19 | 2.65 | 3.18 | 3.81
x2 = 0.8861 | 0.724 | 0.887 | 1.12 | 1.43 | 1.85 | 2.25 | 2.72 | 3.24 | 3.85 | 4.53
x2 = 0.9303 | 0.871 | 1.07 | 1.35 | 1.7 | 2.17 | 2.67 | 3.23 | 3.87 | 4.64 | 5.28
x2 = 0.9678 | 1.03 | 1.26 | 1.59 | 1.99 | 2.5 | 3.05 | 3.69 | 4.4 | 5.23 | 6.04
